Assay results as given in patent US20040097421A1 (priority 2000, published 2004).
Structures can show the parent of a compound that is named as a salt. Where two headings read alike, the source gives them in different places.

Legend:
[1] = tested on: panel of ten human tumour cell lines; type: cell-based
[2] = tested on: 8226S (myeloma RPMI 8226); experiment: cells; type: cell-based, human; conditions: read-out: IC50 (μM), 8226S
[3] = tested on: hematological tumors, primary cultures of human tumor cells from patients (PHTC); type: cell-based
[4] = tested on: solid tumors, primary cultures of human tumor cells from patients (PHTC); type: cell-based
[5] = tested on: Ovarian carcinoma tumor cell system; experiment: Cytotoxic activity in different tumor models, ovarian carcinoma; type: cell-based, human; conditions: Number 8
[6] = tested on: Breast cancer tumor cell system; experiment: Cytotoxic activity in different tumor models, breast cancer; type: cell-based, human; conditions: Number 4
[7] = tested on: NSC Lung cancer tumor cell system; experiment: Cytotoxic activity in different tumor models, NSC lung cancer; type: cell-based, human; conditions: Number 8
[8] = tested on: Prostate cancer tumor cell system; experiment: Cytotoxic activity in different tumor models, prostate cancer; type: cell-based, human; conditions: Number 1
[9] = tested on: Adenocarcinoma tumor cell system; experiment: Cytotoxic activity in different tumor models, adenocarcinoma; type: cell-based, human; conditions: Number 5
[10] = tested on: 27 PHTC samples from 9 patients with hematological and 18 patients with solid tumours; experiment: Circumvention of melphalan resistance, FMCA classification of PHTC samples; type: cell-based, human; conditions: 4 μM
[11] = tested on: solid tumour types, cell lines and primary cultures of human tumour cells from patients; experiment: Tumour type specific spectrum of antitumour activity, solid tumour types; type: cell-based
[12] = tested on: hematological fresh human tumour specimens (PHTC); type: cell-based
[13] = tested on: solid fresh human tumour specimens (PHTC); type: cell-based
[14] = tested on: CEM/S (leukemia CCRF-CEM); experiment: cells; type: cell-based; conditions: Homo sapiens, 72 h, read-out: IC50 (μM), CEM/S
sarcoma 45 = conditions: rats; cited from earlier work
[15] = tested on: mitochondria from rat liver homogenates and Jensen sarcoma cells; conditions: cited from earlier work

Which “IC50 (μM), MEAN” value [1] does the source give for `CCOC(=O)[C@H](Cc1ccccc1)NC(=O)[C@@H](N)Cc1ccc(N(CCCl)CCCl)cc1.Cl` [JV22, L-Melphalanyl-L-phenylalanine ethyl ester hydrochloride] here?
The value was 0.48 µM.

With `CCOC(=O)[C@H](Cc1ccc(O)cc1)NC(=O)[C@@H](N)Cc1ccc(N(CCCl)CCCl)cc1.Cl` [JV24, L-Melphalanyl-L-tyrosine ethyl ester hydrochloride] as the compound, how does the “IC50 (μM), MEAN” value [1] read?
Its value is 1.05 µM.

Which IC50 [2] does the source give for `CCOC(=O)[C@H](Cc1ccc(N(CCCl)CCCl)cc1)NC(=O)[C@@H](N)Cc1ccc(N(CCCl)CCCl)cc1` [JV27, L-Melphalanyl-L-melphalan ethyl ester hydrochloride] here?
The IC50 was 1.01 µM.

For `CC(C)OC(=O)[C@H](Cc1ccc(F)cc1)NC(=O)[C@@H](N)Cc1ccc(N(CCCl)CCCl)cc1.Cl` [JV28, L-Melphalanyl-L-p-fluorophenylalanine isopropyl ester hydrochloride], which “Activity against hematological PHTC samples compared to melphalan and sarcolysine” value [3] is on record?
Its value is “more active”.

And the “Activity against solid tumor samples compared to melphalan, sarcolysine and P2” value [4]?
Its value is “more active”.

And the “Median response at 4.0 μM >50% reduction in tumor cell survival” value (“Median response at 4.0 μM >50% reduction” below) [5]?
Its value is “Yes”.

What about the “Median response at 4.0 μM >50% reduction” value [6] of the same compound?
Its value is “Yes”.

What about the “Median response at 4.0 μM >50% reduction” value [7] of the same compound?
Its value is “Yes”.

And the “Median response at 4.0 μM >50% reduction” value [8]?
The value was “Yes”.

And the “Median response at 4.0 μM >50% reduction” value [9]?
Its value is “Yes”.

What about the “Number of samples classified EDR (extreme drug resistance)” value [10] of the same compound?
Its value is 1.

And the “Number of samples classified IDR (intermediate drug resistance)” value [10]?
The value was 2.

What about the “Samples classified EDR (%)” value [10] of the same compound?
The value was 6%.

And the “Activity in the listed diagnoses of Table 5” value ([11]; 4.0 μM)?
Its value is “active in most of these diagnoses”.

What about the “Activity against solid tumour types (activity = at least 50% reduction in tumour cell survival)” value ([11]; cell lines and PHTC) of the same compound?
The value was “showed activity against several types of solid tumours”.

For `CC[C@]1(O)C[C@H]2CN(CCc3c([nH]c4ccccc34)[C@@](C(=O)OC)(c3cc4c(cc3OC)N(C=O)[C@H]3[C@@](O)(C(=O)OC)[C@H](OC(C)=O)[C@]5(CC)C=CCN6CC[C@]43[C@@H]65)C2)C1` [Vincristine, vincristine], which “Tumor cell survival index %, Hematological (n = 42)” value [12] is on record?
The value was 39%.

And the “Tumor cell survival index %, Solid (n = 22)” value [13]?
Its value is 93%.

And the IC50 [14]?
The IC50 was 0.08 µM.

And the IC50 ([2]; Homo sapiens, RPMI-8226, 72 h)?
Its IC50 is 0.01 µM.

What about the “IC50 (μM), MEAN” value [1] of the same compound?
Its value is 30.1 µM.

With `CCC1=C[C@@H]2CN(C1)Cc1c([nH]c3ccccc13)[C@@](C(=O)OC)(c1cc3c(cc1OC)N(C)[C@H]1[C@@](O)(C(=O)OC)[C@H](OC(C)=O)[C@]4(CC)C=CCN5CC[C@]31[C@@H]54)C2` [Vinorelbine, vinorelbine] as the compound, how does the “Tumor cell survival index %, Hematological (n = 42)” value [12] read?
The value was 50%.

And the “Tumor cell survival index %, Solid (n = 22)” value [13]?
The value was 73%.

Which “Sarcoma 45 growth” value (sarcoma 45) does the source give for `CCOC(=O)[C@H](CC(C)C)NC(=O)[C@H](Cc1ccc(N(CCCl)CCCl)cc1)NC(C)=O` [asaley] here?
The value was “inhibited”.

With `CCOC(=O)[C@H](Cc1ccc(O)cc1)NC(=O)[C@H](Cc1ccc(N(CCCl)CCCl)cc1)NC(C)=O` [astyron, N-acetyl-L-melphalanyl-L-tyrosine ethyl ester] as the compound, how does the “Sarcoma 45 growth” value (sarcoma 45) read?
The value was “inhibited”.

For `CC(C)[C@H](NC(=O)[C@@H](N)Cc1ccc(N(CCCl)CCCl)cc1)C(=O)O` [salin, L-melphalanyl-L-valine], which “Oxidative phosphorylation in mitochondria” value [15] is on record?
The value was “disrupted”.
